From patent US4927941A, “Fluorine-containing nitroazole derivatives and radiosensitizer comprising the same” (Yasunori Nishijima & Daikin Industries Ltd., priority 1987, dated 1990)

Experiments:
EMT-6 tumor cells = test: Radiosensitization effect on tumor transplanted in animal (ER in vivo); set-up: species or system Balb/c mouse; details: in a low concentration
Description: To both thighs of male Balb/c mouse (8 weeks; 4 mice in a group), 10^5 of EMT-6 tumor cells were subcutaneously inoculated. After the diameter of the tumor reached about 1 cm, a solution of a compound to be examined in saline was intraperitonealy administered (200 mg/kg). After 40 minutes from the administration, X-ray was irradiated at a dose rate of 450 rad/min. for 5 minutes and then the mouse was sacrificed.
After the mouse was systemically sterilized, the tumor was taken out and the tissue was homogenated. Then, 22 ml of trypsin was added to the homogenate and stirred for 50 minutes at 37° C. The number of cells in the supernatant was counted. A predetermined amount of the cells was introduced in a plastic plate having a diameter of about 5 cm. To the plate, 5 ml of medium was added and cultured in a CO2 incubator. The plates containing the irradiated and unirradiated cells were removed from the incubator after 9 days and 10 days incubation, respectively. The cells were fixed by methanol and stained by Giemsa stain. Then, the number of colonies formed were counted.
The survival rate was calculated with using the unirradiated cells as control.

hypoxic cells [1] = details: administered in human beings; cited from earlier work
hypoxic cells [2] = details: versus no Misonidazole; cited from earlier work

Question: With `COCCNC(=O)C(F)(F)Cn1cnc([N+](=O)[O-])n1` [(2), 3-(3'-nitro-1',2',4'-triazol-1'-yl)-2,2-difluoropropionic acid methoxyethylamide] as the molecule, how does the LD50 (in vivo) read?
Answer: > 3000 mg/kg

Question: For `O=C(NCCO)C(F)(F)Cn1cnc([N+](=O)[O-])n1` [(3), 3-(3'-nitro-1',2',4'-triazol-1'-yl)-2,2-difluoropropionic acid hydroxyethylamide], which LD50 (in vivo) is on record?
Answer: 1600 mg/kg

Question: Which LD50 (in vivo) does the source give for `COCC(F)Cn1cnc([N+](=O)[O-])n1` (stereo not drawn) [(7), 1-(2'-fluoro-3'-methoxypropyl)-3-nitro-1,2,4-triazole] here?
Answer: > 2000 mg/kg

Question: Which results are given for `O=[N+]([O-])c1ncn(CC(O)CF)n1` (stereo not drawn) [(13), 1-(3'-fluoro-2'-hydroxypropyl)-3-nitro-1,2,4-triazole]?
Answer: LD50 (in vivo): 700 mg/kg; ER in vivo in comparison with comparative compounds (1) and (2) (EMT-6 tumor cells): comparable

Question: For `NC(=O)C(F)(F)Cn1cnc([N+](=O)[O-])n1` [(43), 3-(3'-nitro-1',2', 4'-triazol-1'-yl)-2,2-difluoropropionamide], which LD50 (in vivo) is on record?
Answer: 700 mg/kg

Question: For `CC(C)NC(=O)C(F)(F)Cn1cnc([N+](=O)[O-])n1` [(53), 3-(3'-nitro-1', 2', 4'-triazol-1'-yl)-2,2-difluoropropionic acid isopropylamide], which LD50 (in vivo) is on record?
Answer: 600 mg/kg

Question: Which LD50 (in vivo) does the source give for `CC(O)CNC(=O)C(F)(F)Cn1cnc([N+](=O)[O-])n1` (stereo not drawn) [(60), 3-(3'-nitro-1', 2', 4'-triazol-1'-yl)-2,2-difluoropropionic acid isopropanolamide] here?
Answer: 1200 mg/kg

Question: Which LD50 (in vivo) does the source give for `NC(=O)CCNC(=O)C(F)(F)Cn1cnc([N+](=O)[O-])n1` [(62), 1-(3'-nitro-1',2',4'-triazol-1'-yl)-2,2-difluoropropionic acid 3-alanylamide] here?
Answer: 1500 mg/kg

Question: With `O=[N+]([O-])c1ncn(CC(F)COCC(O)CO)n1` (stereo not drawn) [(65), 1-(2'-fluoro-4'-oxo-6',7'-dihydroxyheptyl)-3-nitro-1,2,4-triazole] as the molecule, how does the LD50 (in vivo) read?
Answer: 1600 mg/kg

Question: Which “sensitizing effect in human beings” value (hypoxic cells [1]) does the source give for `COCC(O)Cn1ccnc1[N+](=O)[O-]` (stereo not drawn) [Misonidazole, 1-(2-Nitro-1-imidazolyl)-3-methoxy-2-propanol] here?
Answer: No sensitizing effect was confirmed

Question: And the “effectiveness as hypoxic cell sensitizer” value (hypoxic cells [2])?
Answer: about twice as effective as when no Misonidazole is used
